Source: patent US20210128609A1, “ONCOLOGY TREATMENTS USING ZINC AGENTS” (XYLONIX IP HOLDINGS PTE. LTD., priority 2018, published 2021)

Key:
Assay type in all cases: cell-based
NCI-H446 = assay: CellTiter-Glo cell viability, NCI-H446
Description: (§1) The 50% inhibitory concentration (IC50) was determined in the cancer cell lines using CellTiter-Glo luminescent cell viability assay after incubation with different concentrations of active agents. Each cell line was treated with active Zn(II) agent, a standard chemotherapy drug as reference control, and culture medium as vehicle control. Cell Lines. All cell lines were cultured in media supplemented with 10-15% FBS, at a temperature of 37° C., 5% CO2, and 95% humidity. The reference control drug for all cell lines was cisplatin, to be used for genomic analysis. The cell lines tested, the tissue of origin are shown below in Table 1: Procedure for Determining Half Maximal Inhibition Concentration IC50 • 1. Harvested cells during the logarithmic growth period and count cell number using Count-star. • 2. Adjusted cell concentrations to 4.44×10^4 cells/mL with respective culture medium. • 3. Added 90 μL cell suspensions to two 96-well plates (plates A and B) with the final cell density of 4×10^3 cells/well. (cell concentration was adjusted according to the data base or density optimization assay.) • 4a. Next day: For the plates of TO reading: • 1) Added 10 μL culture medium to each well of plate A for TO reading. • 2) Equilibrated the plate and its content at RT for approximately 30 min. • 3) Added 50 μL CellTiter-Glo reagent to each well. • 4) Mixed content for 5 min on an orbital shaker to induce cell lysis. • 5) Allowed the plate to incubate at RT for 20 min to stabilize luminescent signal. • 6) Recorded luminescence (TO) using EnVision Multi Label Reader. • 4b. For the plates of test reading: • 1) Prepared 10× solution of Zn(II) agent test article. […] The formula for calculating surviving rate is shown below and the absolute IC50 (EC50) was calculated according to the dose-response curve generated by GraphPad Prism 5.0. • 12) The surviving rate (%)=(LumTest article−LumMedium control)/(LumNon-treated−LumMedium control)×100%.

MES-SA/DX5 = assay: CellTiter-Glo cell viability, MES-SA/DX5
Description: as §1

DU 145 = assay: CellTiter-Glo cell viability, DU 145
Description: as §1

SK-OV-3 = assay: CellTiter-Glo cell viability, SK-OV-3
Description: The 50% inhibitory concentration (IC50) was determined in the cancer cell lines using CellTiter-Glo luminescent cell viability assay after incubation with different concentrations of active agents. Each cell line was treated with active Zn(II) agent, a standard chemotherapy drug as reference control, and culture medium as vehicle control. Cell Lines. All cell lines were cultured in media supplemented with 10-15% FBS, at a temperature of 37° C., 5% CO2, and 95% humidity. The reference control drug for all cell lines was cisplatin, to be used for genomic analysis. The cell lines tested, the tissue of origin are shown below in Table 1: Procedure for Determining Half Maximal Inhibition Concentration IC50 • 1. Harvested cells during the logarithmic growth period and count cell number using Count-star. • 2. Adjusted cell concentrations to 4.44×10^4 cells/mL with respective culture medium. • 3. Added 90 μL cell suspensions to two 96-well plates (plates A and B) with the final cell density of 4×10^3 cells/well. (cell concentration was adjusted according to the data base or density optimization assay.) • 4a. […]

KARPAS-422 = assay: CellTiter-Glo cell viability, KARPAS-422
Description: as §1

SK-HEP-1 = assay: CellTiter-Glo cell viability, SK-HEP-1
Description: as §1

PC-3 = assay: CellTiter-Glo cell viability, PC-3
Description: as §1

HL-60 = assay: CellTiter-Glo cell viability, HL-60
Description: as §1

HCC1954 = assay: CellTiter-Glo cell viability, HCC1954
Description: as §1

Daudi = assay: CellTiter-Glo cell viability, Daudi
Description: as §1

CA46 = assay: CellTiter-Glo cell viability, CA46
Description: as §1

Calu-3 = assay: CellTiter-Glo cell viability, Calu-3
Description: as §1

JHH-7 = assay: CellTiter-Glo cell viability, JHH-7
Description: as §1

NAMALWA = assay: CellTiter-Glo cell viability, NAMALWA
Description: as §1

Raji = assay: CellTiter-Glo cell viability, Raji
Description: as §1

MV-4-11 = assay: CellTiter-Glo cell viability, MV-4-11
Description: as §1

NCI-H929 = assay: CellTiter-Glo cell viability, NCI-H929
Description: as §1

U-937 = assay: CellTiter-Glo cell viability, U-937
Description: as §1

Pfeiffer = assay: CellTiter-Glo cell viability, Pfeiffer
Description: as §1

SU-DHL-6 = assay: CellTiter-Glo cell viability, SU-DHL-6
Description: as §1

JJN-3 = assay: CellTiter-Glo cell viability, JJN-3
Description: as §1

AMO-1 = assay: CellTiter-Glo cell viability, AMO-1
Description: as §1

EOL-1 = assay: CellTiter-Glo cell viability, EOL-1
Description: as §1

THP-1 = assay: CellTiter-Glo cell viability, THP-1
Description: as §1

Hep3B = assay: CellTiter-Glo cell viability, Hep3B
Description: as §1

[1] = 96 h, top conc. 50 μg/mL Zn(II) agent, 100 μM cisplatin

Structure (SMILES): N.N.[Cl][Pt][Cl] [Cisplatin]
- Absolute IC50 (NCI-H446; 96 h, CellTiter-Glo): 0.35 µg/mL
- % inhibition at top conc. (NCI-H446; [1]): 99.99%
- HillSlope (NCI-H446; 96 h dose-response fit): −0.65
- Absolute IC50 (MES-SA/DX5; 96 h, CellTiter-Glo): 0.56 µg/mL
- % inhibition at top conc. (MES-SA/DX5; [1]): 99.97%
- HillSlope (MES-SA/DX5; 96 h dose-response fit): −1.75
- Absolute IC50 (DU 145; 96 h, CellTiter-Glo): 0.20 µg/mL
- % inhibition at top conc. (DU 145; [1]): 99.24%
- HillSlope (DU 145; 96 h dose-response fit): −2.37
- % inhibition at top conc. (SK-OV-3; [1]): 98.22%
- HillSlope (SK-OV-3; 96 h dose-response fit): −1.68
- Absolute IC50 (KARPAS-422; 96 h, CellTiter-Glo): 0.37 µg/mL
- % inhibition at top conc. (KARPAS-422; [1]): 99.99%
- HillSlope (KARPAS-422; 96 h dose-response fit): −1.04
- Absolute IC50 (SK-HEP-1; 96 h, CellTiter-Glo): 2.13 µg/mL
- % inhibition at top conc. (SK-HEP-1; [1]): 99.93%
- HillSlope (SK-HEP-1; 96 h dose-response fit): −1.28
- Absolute IC50 (PC-3; 96 h, CellTiter-Glo): 1.13 µg/mL
- % inhibition at top conc. (PC-3; [1]): 93.27%
- HillSlope (PC-3; 96 h dose-response fit): −1.55
- Absolute IC50 (HL-60; 96 h, CellTiter-Glo): 0.29 µg/mL
- % inhibition at top conc. (HL-60; [1]): 99.99%
- HillSlope (HL-60; 96 h dose-response fit): −2.08
- Absolute IC50 (HCC1954; 96 h, CellTiter-Glo): 1.59 µg/mL
- % inhibition at top conc. (HCC1954; [1]): 99.87%
- HillSlope (HCC1954; 96 h dose-response fit): −1.98
- Absolute IC50 (Daudi; 96 h, CellTiter-Glo): 0.11 µg/mL
- % inhibition at top conc. (Daudi; [1]): 99.86%
- HillSlope (Daudi; 96 h dose-response fit): −1.59
- Absolute IC50 (CA46; 96 h, CellTiter-Glo): 0.21 µg/mL
- % inhibition at top conc. (CA46; [1]): 99.92%
- HillSlope (CA46; 96 h dose-response fit): −1.96
- Absolute IC50 (Calu-3; 96 h, CellTiter-Glo): 0.30 µg/mL
- % inhibition at top conc. (Calu-3; [1]): 82.29%
- HillSlope (Calu-3; 96 h dose-response fit): −1.15
- Absolute IC50 (JHH-7; 96 h, CellTiter-Glo): 0.44 µg/mL
- % inhibition at top conc. (JHH-7; [1]): 99.16%
- HillSlope (JHH-7; 96 h dose-response fit): −0.80
- Absolute IC50 (NAMALWA; 96 h, CellTiter-Glo): 0.07 µg/mL
- % inhibition at top conc. (NAMALWA; [1]): 99.99%
- HillSlope (NAMALWA; 96 h dose-response fit): −3.97
- Absolute IC50 (Raji; 96 h, CellTiter-Glo): 0.50 µg/mL
- % inhibition at top conc. (Raji; [1]): 99.57%
- HillSlope (Raji; 96 h dose-response fit): −2.98
- Absolute IC50 (MV-4-11; 96 h, CellTiter-Glo): 0.09 µg/mL
- % inhibition at top conc. (MV-4-11; [1]): 99.99%
- HillSlope (MV-4-11; 96 h dose-response fit): −2.06
- Absolute IC50 (NCI-H929; 96 h, CellTiter-Glo): 0.64 µg/mL
- % inhibition at top conc. (NCI-H929; [1]): 99.98%
- HillSlope (NCI-H929; 96 h dose-response fit): −1.83
- Absolute IC50 (U-937; 96 h, CellTiter-Glo): 0.37 µg/mL
- % inhibition at top conc. (U-937; [1]): 99.99%
- HillSlope (U-937; 96 h dose-response fit): −4.57
- Absolute IC50 (Pfeiffer; 96 h, CellTiter-Glo): 0.83 µg/mL
- % inhibition at top conc. (Pfeiffer; [1]): 99.98%
- HillSlope (Pfeiffer; 96 h dose-response fit): −1.79
- Absolute IC50 (SU-DHL-6; 96 h, CellTiter-Glo): 0.38 µg/mL
- % inhibition at top conc. (SU-DHL-6; [1]): 99.99%
- HillSlope (SU-DHL-6; 96 h dose-response fit): −1.11
- Absolute IC50 (JJN-3; 96 h, CellTiter-Glo): 0.28 µg/mL
- % inhibition at top conc. (JJN-3; [1]): 99.81%
- HillSlope (JJN-3; 96 h dose-response fit): −1.17
- Absolute IC50 (AMO-1; 96 h, CellTiter-Glo): 0.27 µg/mL
- % inhibition at top conc. (AMO-1; [1]): 99.99%
- HillSlope (AMO-1; 96 h dose-response fit): −3.34
- Absolute IC50 (EOL-1; 96 h, CellTiter-Glo): 0.16 µg/mL
- % inhibition at top conc. (EOL-1; [1]): 99.99%
- HillSlope (EOL-1; 96 h dose-response fit): −1.87
- Absolute IC50 (THP-1; 96 h, CellTiter-Glo): 0.39 µg/mL
- % inhibition at top conc. (THP-1; [1]): 99.98%
- HillSlope (THP-1; 96 h dose-response fit): −3.03
- Absolute IC50 (Hep3B; 96 h, CellTiter-Glo): 0.78 µg/mL
- % inhibition at top conc. (Hep3B; [1]): 99.58%
- HillSlope (Hep3B; 96 h dose-response fit): −1.50
